Patent US7691601B2, “Medium for detecting and/or identifying of microorganisms” (priority 2003, dated 2010)

Legend:
[1] = system: free esterases in a stool sample; assay: Coloration at the point of deposit of the stool on Salmonella detection medium (Magenta C8); type: biochemical; design: key to Deposit coloration: 0=no coloration; 0.5=trace of coloration; 1=weak coloration; 2=strong coloration; settings: for Deposit coloration: Table 1
Experimental: (§1) Preparation of the detection medium: A volume of 250 ml of detection medium is prepared from a powdered medium having the following composition:
(§2) Melting is carried out at 100° C., and the medium is autoclaved at 121° C. for 15 minutes. The additives are then added to the medium: Magenta C8 (500 mg/l; B-7102, BIOSYNTH, Staad, Switzerland); X-glucoside (75 mg/l; B-7250, BIOSYNTH, Staad, Switzerland); cefsulodine (10 mg/l; C 4786, Sigma, St Quentin Fallavier, France) and various concentrations of the inhibitor O,O-diethyl p-nitrophenyl phosphate (Paraoxon® ethyl; CAS No. 311-45-5; 36186, Riedel-de Haën, St Quentin Fallavier, France; 0; 1; 5 or 10 mg/l).
(§3) The various detection media thus obtained are then poured into Petri dishes.
(§4) Seeding of Salmonella bacteria: 10 μl of stools are deposited onto a Petri dish, this stool suspension is mixed or not mixed with 10 μl of a suspension of Salmonella (0.5 McF) and isolated as 3 dials on a Petri dish. Various […] and various Salmonella strains originating from the applicant's collection are used according to this protocol. The Petri dishes are incubated at 37° C. for 24 hours. The appearance of a coloration at the point of deposit of the stool (“deposit” column) and at the Salmonella colony (“colony” column) is read according to a semi-quantitative scale: • 0=no coloration • 0.5=trace of coloration • 1=weak coloration • 2=strong coloration The results obtained are given in Table 1.
(§5) Melting is carried out at 100° C., and the medium is autoclaved at 121° C. for 15 minutes. The additives are then added to the medium: Magenta C8 (500 mg/l; B-7102, BIOSYNTH, Staad, Switzerland); X-glucoside (75 mg/l; B-7250, BIOSYNTH, Staad, Switzerland); cefsulodine (10 mg/l; C 4786, Sigma, St Quentin Fallavier, France) and various concentrations of the inhibitor O,O-dimethyl p-nitrophenyl phosphate (Paraoxon® methyl; CAS No. 950-35-6; Riedel-de Haën, St Quentin Fallavier, France; 5, 10, 25 mg/l).
(§6) Seeding of Salmonella bacteria: The Petri dishes are inoculated, incubated and read as in Example 1.
(§7) Preparation of the detection medium: 250 ml of the medium of Example 1, in which the O,O-diethyl p-nitrophenyl phosphate is replaced with various concentrations of O,O-di-(2-chloroethyl)-O-(3-chloro-4-methylcoumarin-7-yl)phosphate (Haloxon®; CAS No. 321-55-1; R276995, Sigma, St Quentin Fallavier, France; 0; 1; 10; 100 or 1000 mg/l), are prepared according to the method of Example 1.
(§8) The various selection media thus obtained are then poured into Petri dishes.

Salmonella Enteritidis = assay: Coloration of Salmonella Enteritidis colonies on detection medium; type: cell-based; design: key: 0=no coloration; 0.5=trace of coloration; 1=weak coloration; 2=strong coloration
Experimental: as §1, §2, §3, §4, §5, §6, §7, §8

Salmonella Typhi = assay: Coloration of Salmonella Typhi colonies on detection medium; type: cell-based; design: key: 0=no coloration; 0.5=trace of coloration; 1=weak coloration; 2=strong coloration
Experimental: as §1, §2, §3, §4, §5, §6, §7, §8

[2] = Colonies column read for stool without added strain, Salmonella detection medium; design: key: 0=no coloration; 0.5=trace of coloration; 1=weak coloration; 2=strong coloration; settings: Table 1, no strain
Experimental: as §1, §2, §3, §4, §5, §6, §7, §8

free esterases in stools = assay: Coloration at the point of deposit of the stool on Candida detection medium; type: biochemical; settings: summary in words
Experimental: as §1
(§9) Melting is carried out at 100° C., and the medium is autoclaved at 121° C. for 15 minutes. The additives are then added to the medium: Magenta C8 (500 mg/l; B-7102, BIOSYNTH, Staad, Switzerland); X-glucoside (75 mg/l; B-7250, BIOSYNTH, Staad, Switzerland); cefsulodine (10 mg/l; C 4786, Sigma, St Quentin Fallavier, France), and also the esterase inhibitor: • ? O,O-diethyl p-nitrophenyl phosphate: 5 mg/l • ? O,O-dimethyl p-nitrophenyl phosphate: 25 mg/l or • ? O,O-di-(2-chloroethyl)-O-(3-chloro-4-methylcoumarin-7-yl)phosphate: 75 mg/l
as §8
(§10) Seeding of yeast of the Candida genus: 10 μl of stools are deposited onto a Petri dish, and this stool suspension is mixed or not mixed with 10 μl of a suspension of Candida and isolated as 3 dials on a Petri dish. Various stools and various strains of Candida genus originating from the applicant's collection are used according to this protocol. The Petri dishes are incubated at 37° C. for 24 hours.
(§11) The appearance of a coloration at the point of deposit of the stool and in the Candida colonies is read according to a semi-quantitative scale: • 0=absence of coloration • 0.5=trace coloration • 1=weak coloration • 2=strong coloration.

Candida krusei = assay: Coloration of Candida krusei colonies on detection medium; type: cell-based; design: key: 0=absence of coloration; 0.5=trace coloration; 1=weak coloration; 2=strong coloration; settings: Table 4, 5 mg/l
Experimental: as §1, §9, §8, §10, §11

Candida albicans = assay: Coloration of Candida albicans colonies on detection medium; type: cell-based; design: key: 0=absence of coloration; 0.5=trace coloration; 1=weak coloration; 2=strong coloration; settings: Table 4, 5 mg/l, stool B
Experimental: as §1, §9, §8, §10, §11

CCOP(=O)(OCC)Oc1ccc([N+](=O)[O-])cc1 [O,O-diethyl p-nitrophenyl phosphate]
Deposit coloration ([1]; 1 mg/l, stool A, Salmonella Enteritidis): 0.5
Deposit coloration ([1]; 1 mg/l, stool A, Salmonella Paratyphi A): 0.5
Deposit coloration ([1]; 1 mg/l, stool A, Salmonella Typhi): 0.5
Deposit coloration ([1]; 1 mg/l, stool A, no strain): 0.5
Deposit coloration ([1]; 1 mg/l, stool B, Salmonella Enteritidis): 0
Deposit coloration ([1]; 1 mg/l, stool B, Salmonella Paratyphi A): 0
Deposit coloration ([1]; 1 mg/l, stool B, Salmonella Typhi): 0
Deposit coloration ([1]; 1 mg/l, stool B, no strain): 0
Deposit coloration ([1]; 5 mg/l, stool A, Salmonella Enteritidis): 0
Deposit coloration ([1]; 5 mg/l, stool A, Salmonella Paratyphi A): 0
Deposit coloration ([1]; 5 mg/l, stool A, Salmonella Typhi): 0
Deposit coloration ([1]; 5 mg/l, stool A, no strain): 0
Deposit coloration ([1]; 5 mg/l, stool B, Salmonella Enteritidis): 0
Deposit coloration ([1]; 5 mg/l, stool B, Salmonella Paratyphi A): 0
Deposit coloration ([1]; 5 mg/l, stool B, Salmonella Typhi): 0
Deposit coloration ([1]; 5 mg/l, stool B, no strain): 0
Deposit coloration ([1]; 10 mg/l, stool A, Salmonella Enteritidis): 0
Deposit coloration ([1]; 10 mg/l, stool A, Salmonella Paratyphi A): 0
Deposit coloration ([1]; 10 mg/l, stool A, Salmonella Typhi): 0
Deposit coloration ([1]; 10 mg/l, stool A, no strain): 0
Deposit coloration ([1]; 10 mg/l, stool B, Salmonella Enteritidis): 0
Deposit coloration ([1]; 10 mg/l, stool B, Salmonella Paratyphi A): 0
Deposit coloration ([1]; 10 mg/l, stool B, Salmonella Typhi): 0
Deposit coloration ([1]; 10 mg/l, stool B, no strain): 0
Aspecific enzymatic reactions due to the presence of free enzymes ([1]; stools, Salmonella detection medium, summary in words): greatly inhibited
Colonies coloration (Salmonella Enteritidis; Table 1, 1 mg/l, stool A): 2
Colonies coloration (Salmonella Enteritidis; Table 1, 1 mg/l, stool B): 2
Colonies coloration (Salmonella Enteritidis; Table 1, 5 mg/l, stool A): 2
Colonies coloration (Salmonella Enteritidis; Table 1, 5 mg/l, stool B): 2
Colonies coloration (Salmonella Enteritidis; Table 1, 10 mg/l, stool A): 2
Colonies coloration (Salmonella Enteritidis; Table 1, 10 mg/l, stool B): 2
Colonies coloration (Salmonella Typhi; Table 1, 1 mg/l, stool A): 1
Colonies coloration (Salmonella Typhi; Table 1, 1 mg/l, stool B): 1
Colonies coloration (Salmonella Typhi; Table 1, 5 mg/l, stool A): 1
Colonies coloration (Salmonella Typhi; Table 1, 5 mg/l, stool B): 1
Colonies coloration (Salmonella Typhi; Table 1, 10 mg/l, stool A): 1
Colonies coloration (Salmonella Typhi; Table 1, 10 mg/l, stool B): 1
Colonies coloration ([2]; 1 mg/l, stool A): 0
Colonies coloration ([2]; 1 mg/l, stool B): 0
Colonies coloration ([2]; 5 mg/l, stool A): 0
Colonies coloration ([2]; 5 mg/l, stool B): 0
Colonies coloration ([2]; 10 mg/l, stool A): 0
Colonies coloration ([2]; 10 mg/l, stool B): 0
Aspecific enzymatic reactions due to the presence of free enzymes (free esterases in stools): greatly inhibited
Colonies coloration (Candida krusei; stool A): 0.5
Colonies coloration (Candida krusei; stool B): 0.5
Colonies coloration (Candida albicans): 0.5
